Laboratory results taken from publication PMC10845951, “Characterization of a selective, iron-chelating antifungal compound that disrupts fungal metabolism and synergizes with fluconazole” (Microbiology Spectrum, 2024).

Key:
[1] = tested on: Candida glabrata (ATCC15545; JEY10028) wild type; assay: Compound screening: proliferation (OD600, 24 h); type: cell-based; conditions: wild-type C. glabrata (JEY10028), SD media
Experimental: For experiments, yeast cells were routinely cultured in YPD media and incubated at 30°C overnight. The cultures were refreshed the next day for 2–3 h in YNB −iron (0.69% yeast nitrogen base without amino acids or iron, with 2% dextrose) media, unless stated, at the same temperature. After incubation, the optical density (OD600) of the cell cultures was measured and adjusted to 0.15.
The collismycin compounds were provided by EntreChem (Spain) at stock solutions of 20 mM in DMSO and stored at −20°C. For serial dilutions of the compounds in clear 96-well plates, intermediate stock concentrations of 100 µM of compound (100 µL for each technical replicate) were prepared in YNB −iron media unless otherwise specified, and 1:1 serial dilutions were performed using a multi-channel pipette. Fifty microliters of cell culture (OD600 = 0.15) were added to the wells containing the compounds, for a total volume of 150 µL. The final concentrations in the wells (with three technical replicates) were equivalent to 0.5, 1, 2.1, 4.2, 8.4, 16.7, 33.3, and 66.6 µM. The OD600 of each well was quantified, and the plates were incubated inside plastic bags (to prevent evaporation) at 30°C for 24 h, after which the final OD600 was measured. The EC50 was calculated using the four-parameter log logistic function with the drc package in R ([57]).

C. albicans WT = conditions: 24 h
[2] = Candida albicans, read-out: C. albicans WT Inhibition (%)

Question: Which antifungal activity [1] does the source give for `COc1cc(-c2ccccn2)nc(CO)c1SC` [ColH, collismycin H] here?
Answer: lacked antifungal activity even at very high concentrations

Question: What does the source list for `OC(Cn1cncn1)(Cn1cncn1)c1ccc(F)cc1F` [Fluconazole, fluconazole]?
Answer: susceptibility to fluconazole alone (C. albicans WT; YNB −iron): only susceptible to high concentrations; inhibition at 3.13 µM (C. albicans WT; [2]): -1.65%; inhibition at 6.25 µM (C. albicans WT; [2]): 9.43%; inhibition at 25 µM (C. albicans WT; [2]): 14.8%; inhibition at 50 µM (C. albicans WT; [2]): 15.4%; inhibition at 100 µM (C. albicans WT; [2]): 19.6%
